From US9540343B2 (Gilead Sciences, Inc., priority 2011, dated 2017) come the findings set out here.

One series concerns MT-4 cells. The series can be described thus: in vitro. To be noted: uninfected MT-4 cells, same protocol as Test A, 5 days, CellTiter-Glo. An outline of the steps: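 Cytoprotection read-out: CellTiter-Glo chemiluminescence after 5 days at 37 °C of HIV-IIIb-infected MT-4 cells (m.o.i. 0.003) with compound in 10-point 3-fold dilutions, quadruplicate, 10% FBS. Cytotoxicity (CC50) measured identically without virus.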

In another series the test system is HIV-IIIb. The series can be described thus: Test A: Antiviral assay in MT4 cells. Format: cell-based, HIV-1. As to conditions: percent inhibition of virus-induced cell killing, from dose response curve at 2 uM drug; MT-4 cells infected with HIV-IIIb, 5 days, CellTiter-Glo. Background: Cellular ATP, detected with luciferase, serves as a proxy for viable cell number.

For orientation: CC50 means the concentration that lowers cell viability or growth by half. Higher therefore signals lower toxicity to the cells. As a reminder, the % inhibition is the drop in the measured response relative to a control, in per cent. In the series with MT-4 cells, `CC(C)CC(=O)NS(=O)(=O)c1ccc(-c2cccnc2C(Cc2cc(F)cc(F)c2)NC(=O)Cn2nc(C(F)F)c3c2C(F)(F)C2C[C@H]32)cc1` (stereo partly drawn) [Example 427, (S)—N-(1-(3-(4-(N-(3-methylbutanoyl)sulfamoyl)phenyl)-pyridin-2-yl)-2-(3,5-difluorophenyl)ethyl)-2-(3-(difluoromethyl)-5,6-dihydro-4,5-(methano)-6,6-difluoro-cyclopenta[c]pyrazol-1(4H)-yl)acetamide] showed a CC50 of 32.8 µM. For the same compound, in the series on HIV-IIIb, the “% inhibition at 2 μM” value is 0%.

For `CNS(=O)(=O)c1ccc(-c2cccnc2C(Cc2cc(F)cc(F)c2)NC(=O)Cn2nc(C(F)F)c3c2C(F)(F)C2C[C@H]32)cc1` (stereo partly drawn) [Example 429, (S)—N-(1-(3-(4-(N-methylsulfamoyl)phenyl)-pyridin-2-yl)-2-(3,5-difluorophenyl)ethyl)-2-(3-(difluoromethyl)-5,6-dihydro-4,5-(methano)-6,6-difluoro-cyclopenta[c]pyrazol-1(4H)-yl)acetamide], half-maximal cytotoxicity in the series on MT-4 cells (CC50) was put at 41.6 µM. In addition, the “% inhibition at 2 μM” value in the series on HIV-IIIb was determined as 57%.

For `CCC(C(=O)N[C@@H](Cc1cc(F)cc(F)c1)c1ncccc1-c1ccc(F)c(C(N)=O)c1)n1cc(C(C)=O)c2ccccc21` (stereo partly drawn) [Example 544, 5-(2-((1S)-1-(2-(3-acetyl-1H-indol-1-yl)butanamido)-2-(3,5-difluorophenyl)ethyl)pyridin-3-yl)-2-fluorobenzamide], in the series on MT-4 cells, the CC50 was above 53.2 µM. In addition, in the series on HIV-IIIb, the “% inhibition at 2 μM” value was determined as 75%.

`CCC(C(=O)N[C@@H](Cc1cc(F)cc(F)c1)c1ncccc1-c1ccc(F)c(C(N)=O)c1)n1cc(C(C)=O)c2ccccc21` (stereo partly drawn) [Example 554, 5-(2-((1S)-1-(2-(3-acetyl-1H-indol-1-yl)butanamido)-2-(3,5-difluorophenyl)ethyl)pyridin-3-yl)-2-fluorobenzamide] yielded a half-maximal cytotoxic concentration (CC50) in the series with MT-4 cells of 48.9 µM. Moreover, the “% inhibition at 2 μM” value in the series with HIV-IIIb is recorded as 63%.

For the compound “(S)-5-(2-(1-(2-(5-(difluoromethyl)-3-phenyl-1H-pyrazol-1-yl)acetamido)-2-(3,5-difluorophenyl)ethyl)pyridin-3-yl)-2-fluorobenzamide [Example 240C]”, the midpoint of cytotoxicity with MT-4 cells, the CC50, lay at 34.9 µM. In addition, the “% inhibition at 2 μM” value with HIV-IIIb is 0%.

In the series with MT-4 cells, “(S)—N-(1-(3-(4-(pyrrolidinylcarbonylamino)phenyl)-pyridin-2-yl)-2-(3,5-difluorophenyl)ethyl)-2-(3-(difluoromethyl)-5,6-dihydro-4,5-(methano)-6,6-difluoro-cyclopenta[c]pyrazol-1(4H)-yl)acetamide [Example 80]” came in with a CC50 above 53.2 µM. The “% inhibition at 2 μM” value in the series with HIV-IIIb was 0%.
